Assay results from ChEMBL document CHEMBL2074560, “cDNA cloning, functional characterization, and tissue distribution of an alternatively spliced variant of organic cation transporter hOCT2 predominantly expressed in the human kidney” (J Am Soc Nephrol, 2002).

Assays:
Assay type in all cases: functional, cell-based
[1] = molecular target: T1, Solute carrier family 22 member 2 (Homo sapiens, UniProt O15244); experiment: TP_TRANSPORTER: inhibition of TEA uptake (TEA: 5 uM, N-acetyl procainamide: 1000 uM) in OCT2A-expressing HEK293 cells; conditions: hek293, 1000 µM
T1 sequence (O15244 whole entry): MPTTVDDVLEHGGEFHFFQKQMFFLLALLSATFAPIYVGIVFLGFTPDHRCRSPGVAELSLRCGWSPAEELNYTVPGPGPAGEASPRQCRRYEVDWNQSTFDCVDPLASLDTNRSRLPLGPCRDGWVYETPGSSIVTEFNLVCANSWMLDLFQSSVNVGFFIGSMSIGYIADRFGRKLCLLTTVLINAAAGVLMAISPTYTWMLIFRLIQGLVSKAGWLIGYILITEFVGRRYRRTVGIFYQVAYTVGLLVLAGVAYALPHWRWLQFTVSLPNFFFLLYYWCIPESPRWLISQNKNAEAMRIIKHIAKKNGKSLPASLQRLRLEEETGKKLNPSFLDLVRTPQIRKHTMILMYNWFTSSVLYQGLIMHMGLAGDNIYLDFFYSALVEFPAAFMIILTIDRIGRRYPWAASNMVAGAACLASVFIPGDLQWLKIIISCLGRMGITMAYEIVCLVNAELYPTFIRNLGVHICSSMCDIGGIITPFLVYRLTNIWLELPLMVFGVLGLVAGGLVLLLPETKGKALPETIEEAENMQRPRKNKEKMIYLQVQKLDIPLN

[2] = molecular target: T1, Solute carrier family 22 member 2; experiment: TP_TRANSPORTER: inhibition of TEA uptake (TEA: 5 uM, N-acetyl procainamide: 1000 uM) in OCT2-expressing HEK293 cells; conditions: hek293, 1000 µM
[3] = molecular target: T1, Solute carrier family 22 member 2; experiment: TP_TRANSPORTER: uptake in OCT2-expressing HEK293 cells
[4] = molecular target: T1, Solute carrier family 22 member 2; experiment: TP_TRANSPORTER: uptake in OCT2A-expressing HEK293 cells
[5] = molecular target: T1, Solute carrier family 22 member 2; experiment: TP_TRANSPORTER: inhibition of TEA uptake (TEA: 5 uM, Amantadine: 100 uM) in OCT2A-expressing HEK293 cells; conditions: hek293, 100 µM
[6] = molecular target: T1, Solute carrier family 22 member 2; experiment: TP_TRANSPORTER: inhibition of TEA uptake (TEA: 5 uM, Noradrenaline: 1000 uM) in OCT2A-expressing HEK293 cells; conditions: hek293, 1000 µM
[7] = molecular target: T1, Solute carrier family 22 member 2; experiment: TP_TRANSPORTER: inhibition of TEA uptake (TEA: 5 uM, Noradrenaline: 1000 uM) in OCT2-expressing HEK293 cells; conditions: hek293, 1000 µM
[8] = molecular target: T1, Solute carrier family 22 member 2; experiment: TP_TRANSPORTER: inhibition of TEA uptake (TEA: 5 uM, Procainamide: 1000 uM) in OCT2A-expressing HEK293 cells; conditions: hek293, 1000 µM
[9] = molecular target: T1, Solute carrier family 22 member 2; experiment: TP_TRANSPORTER: inhibition of TEA uptake (TEA: 5 uM, Procainamide: 1000 uM) in OCT2-expressing HEK293 cells; conditions: hek293, 1000 µM
[10] = molecular target: T1, Solute carrier family 22 member 2; experiment: TP_TRANSPORTER: inhibition of TEA uptake (TEA: 5 uM, Guanidine: 1000 uM) in OCT2A-expressing HEK293 cells; conditions: hek293, 1000 µM
[11] = molecular target: T1, Solute carrier family 22 member 2; experiment: TP_TRANSPORTER: inhibition of TEA uptake (TEA: 5 uM, Guanidine: 1000 uM) in OCT2-expressing HEK293 cells; conditions: hek293, 1000 µM
[12] = molecular target: T1, Solute carrier family 22 member 2; experiment: TP_TRANSPORTER: inhibition of TEA uptake (TEA: 5 uM, GPFX: 2500 uM) in OCT2A-expressing HEK293 cells; conditions: hek293, 2500 µM
[13] = molecular target: T1, Solute carrier family 22 member 2; experiment: TP_TRANSPORTER: inhibition of TEA uptake (TEA: 5 uM, GPFX: 2500 uM) in OCT2-expressing HEK293 cells; conditions: hek293, 2500 µM
[14] = molecular target: T1, Solute carrier family 22 member 2; experiment: TP_TRANSPORTER: inhibition of TEA uptake (TEA: 5 uM, MPP+: 1000 uM) in OCT2A-expressing HEK293 cells; conditions: hek293, 1000 µM
[15] = molecular target: T1, Solute carrier family 22 member 2; experiment: TP_TRANSPORTER: inhibition of TEA uptake (TEA: 5 uM, Creatinine: 1000 uM) in OCT2A-expressing HEK293 cells; conditions: hek293, 1000 µM
[16] = molecular target: T1, Solute carrier family 22 member 2; experiment: TP_TRANSPORTER: inhibition of TEA uptake (TEA: 5 uM, Creatinine: 1000 uM) in OCT2-expressing HEK293 cells; conditions: hek293, 1000 µM
[17] = molecular target: T1, Solute carrier family 22 member 2; experiment: TP_TRANSPORTER: inhibition of TEA uptake (TEA: 5 uM, Imipramine: 1000 uM) in OCT2-expressing HEK293 cells; conditions: hek293, 1000 µM
[18] = molecular target: T1, Solute carrier family 22 member 2; experiment: TP_TRANSPORTER: inhibition of TEA uptake (TEA: 5 uM, Imipramine: 1000 uM) in OCT2A-expressing HEK293 cells; conditions: hek293, 1000 µM
[19] = molecular target: T1, Solute carrier family 22 member 2; experiment: TP_TRANSPORTER: inhibition of TEA uptake (TEA: 5 uM, Serotonin: 1000 uM) in OCT2A-expressing HEK293 cells; conditions: hek293, 1000 µM
[20] = molecular target: T1, Solute carrier family 22 member 2; experiment: TP_TRANSPORTER: inhibition of TEA uptake (TEA: 5 uM, Serotonin: 1000 uM) in OCT2-expressing HEK293 cells; conditions: hek293, 1000 µM
[21] = molecular target: T1, Solute carrier family 22 member 2; experiment: TP_TRANSPORTER: inhibition of TEA uptake (TEA: 5 uM, NMN: 1000 uM) in OCT2A-expressing HEK293 cells; conditions: hek293, 1000 µM
[22] = molecular target: T1, Solute carrier family 22 member 2; experiment: TP_TRANSPORTER: inhibition of TEA uptake (TEA: 5 uM, Levofloxacin: 2500 uM) in OCT2-expressing HEK293 cells; conditions: hek293, 2500 µM
[23] = molecular target: T1, Solute carrier family 22 member 2; experiment: TP_TRANSPORTER: inhibition of TEA uptake (TEA: 5 uM, Levofloxacin: 2500 uM) in OCT2A-expressing HEK293 cells; conditions: hek293, 2500 µM

## CCN(CC)CCNC(=O)c1ccc(NC(C)=O)cc1 [ACECAINIDE]
[1]
  Activity: inhibitor [(at a rough estimate) 15 % of control]
[2]
  Activity: is not an inhibitor [-]

## Cc1cn([C@H]2C[C@H](N=[N+]=[N-])[C@@H](CO)O2)c(=O)[nH]c1=O [ZIDOVUDINE]
[3]
  Activity: is not a substrate [-]
[4]
  Activity: is not a substrate [-]

## NC12CC3CC(CC(C3)C1)C2 [AMANTADINE]
[5]
  Activity: inhibitor [(at a rough estimate) 5 % of control]

## NC[C@H](O)c1ccc(O)c(O)c1 [NOREPINEPHRINE]
[6]
  Activity: is not an inhibitor [-]
[7]
  Activity: inhibitor [(at a rough estimate) 65 % of control]

## CCN(CC)CCNC(=O)c1ccc(N)cc1 [PROCAINAMIDE]
[8]
  Activity: inhibitor [(at a rough estimate) 15 % of control]
[9]
  Activity: is not an inhibitor [-]

## N=C(N)N [GUANIDINE]
[3]
  Activity: substrate [+]
[10]
  Activity: inhibitor [(at a rough estimate) 80 % of control]
[11]
  Activity: inhibitor [(at a rough estimate) 60 % of control]
[4]
  Activity: is not a substrate [-]

## Cc1c(F)c(N2CCNC(C)C2)cc2c1c(=O)c(C(=O)O)cn2C1CC1 (centres undefined) [GREPAFLOXACIN]
[12]
  Activity: inhibitor [(at a rough estimate) 5 % of control]
[13]
  Activity: inhibitor [(at a rough estimate) 30 % of control]

## C[n+]1ccc(-c2ccccc2)cc1
[14]
  Activity: inhibitor [(at a rough estimate) 5 % of control]
[4]
  Activity: substrate [+]

## CN1CC(=O)NC1=N [CREATININE]
[15]
  Activity: inhibitor [(at a rough estimate) 95 % of control]
[16]
  Activity: inhibitor [(at a rough estimate) 80 % of control]

## CN(C)CCCN1c2ccccc2CCc2ccccc21 [IMIPRAMINE]
[17]
  Activity: inhibitor [(at a rough estimate) 10 % of control]
[18]
  Activity: inhibitor [(at a rough estimate) 5 % of control]

## CN/C(=N/CCSCc1nc[nH]c1C)NC#N [CIMETIDINE]
[4]
  Activity: is not a substrate [-]

## NCCc1c[nH]c2ccc(O)cc12 [SEROTONIN]
[19]
  Activity: inhibitor [(at a rough estimate) 35 % of control]
[20]
  Activity: inhibitor [(at a rough estimate) 55 % of control]

## CNC(=O)c1cccnc1 [NICOTINYL METHYLAMIDE]
[21]
  Activity: inhibitor [(at a rough estimate) 30 % of control]

## C[C@H]1COc2c(N3CCN(C)CC3)c(F)cc3c(=O)c(C(=O)O)cn1c23.C[C@H]1COc2c(N3CCN(C)CC3)c(F)cc3c(=O)c(C(=O)O)cn1c23.O [LEVOFLOXACIN]
[3]
  Activity: is not a substrate [-]
[22]
  Activity: is not an inhibitor [-]
[4]
  Activity: is not a substrate [-]
[23]
  Activity: inhibitor [(at a rough estimate) 25 % of control]
